# Data from patent US20220062418A1, “TUMOR TARGETING VITAMIN B12 DERIVATIVES FOR X-RAY ACTIVATED CHEMOTHERAPY” (THE TRUSTEES OF DARTMOUTH COLLEGE, priority 2018, published 2022).
# Test system: tumor stroma
# Test: Losartan effect on stroma and perfusion in two tumor models
# Type: in vivo
# Conditions: preliminary data
# Source text: In an alternative embodiment, we add transcobalamin II to enhance uptake of cobalamin derivatives into tissue. […] Drug delivery is thought to be impeded by the dense stroma of pancreatic adenocarcinoma, and so delivery of cobalamin conjugates could be limited by this issue. […] In an alternative embodiment we treat with Losartan for 10 days prior to cobalamin-drug conjugate treatment to enhance the delivery of this platform to the PDAC tumor stroma.
smiles,measurement,value
CCCCc1nc(Cl)c(CO)n1Cc1ccc(-c2ccccc2-c2nn[nH]n2)cc1 [Losartan],microvessel perfusion,increases in microvessel perfusion
same,stromal formation,reduce stromal formation
